Source: US6737383B1, “Herbicidal oxadiazolidines” (priority 1999, dated 2004)

Experiments:
tall mallow = experiment: Test D tall mallow; format: in vivo, Malva sylvestris; settings: Preemergence, 0 to 100 scale
Source text: (§1) Seeds, tubers, or plant parts of Alexandergrass (Brachiaria plantaginea), bermuda-grass (Cynodon dactylon), common pursiane (Portulaca oleracea), common ragweed (Ambrosia elatior), common groundsel (Senecio vulgaris), dallisgrass (Paspalum dilatatum), goosegrass (Eleusine indica), guineagrass (Panicum maximum), itchgrass (Rottboellia exaltata), Johnson grass (Sorghum halepense), large crabgrass (Digitaria sanguinalis), pitted morningglory (Ipomoea lacunosa), purple nutsedge (Cyperus rotundus), sandbur (Cenchrus echinatus), sourgrass (Trichachne insularis), Spanishneedles (Bidens bipinnata), surinam grass (Brachiaria decumbens) and tall mallow (Malva sylvestris) were planted into greenhouse pots of flats containing greenhouse planting medium. Plant species were grown in separate pots or individual compartments. Preemergence applications were made within one day of planting the seed or plant part.
(§2) Test chemicals were formulated in a non-phytotoxic solvent mixture which included a surfactant and applied preemergence to the surface of the pot containing seeds in a sandy loam soil. Untreated control pots and treated pots were placed in the greenhouse for growth and visually evaluated for injury 14 to 21 days after herbicide application. Plant response ratings, summarized in Table C, are based on a 0 to 100 scale where 0 is no injury and 100 is complete control. A dash (−) response means no test result.

itchgrass = experiment: Test D itchgrass; format: in vivo, Rottboellia exaltata; settings: Preemergence, 0 to 100 scale
Source text: as §1, §2

Spanishneedles = experiment: Test D Spanishneedles; format: in vivo, Bidens bipinnata; settings: Preemergence, 0 to 100 scale
Method in brief: (§3)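 Values are visual plant-response ratings (0 no injury, 100 complete control) recorded 14 to 21 days after herbicide treatment, using a non-phytotoxic solvent mixture containing surfactant. Preemergence applications went to the surface of pots holding freshly sown seed in sandy loam.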

pitted morningglory = experiment: Test D pitted morningglory; format: in vivo, Ipomoea lacunosa; settings: Preemergence, 0 to 100 scale
Method in brief: as §3

dallisgrass = experiment: Test D dallisgrass; format: in vivo, Paspalum dilatatum; settings: Preemergence, 0 to 100 scale
Method in brief: as §3

Johnson grass = experiment: Test D Johnson grass; format: in vivo, Sorghum halepense; settings: Preemergence, 0 to 100 scale
Method in brief: as §3

common ragweed = experiment: Test D common ragweed; format: in vivo, Ambrosia elatior; settings: Preemergence, 0 to 100 scale
Source text: as §1, §2

common pursiane = experiment: Test D common purslane; format: in vivo, Portulaca oleracea
Method in brief: as §3

downy brome = experiment: Test E downy brome; format: in vivo, Bromus tectorum; settings: Preemergence
littleseed canarygrass = experiment: Test E littleseed canarygrass; format: in vivo, Phalaris minor; settings: Postemergence
Procedure: Compounds evaluated in this test were formulated in a non-phytotoxic solvent mixture which included a surfactant and applied to plants that were in the 1- to 4-leaf stage (postemergence application). A mixture of sandy loam soil and greenhouse potting mix in a 60:40 ratio was used for the postemergence test.
Plantings of these crops and weed species were adjusted to produce plants of appropriate size for the postemergence test. All plant species were grown using normal greenhouse practices. Crop and weed species include annual bluegrass (Poa annua), blackgrass (Alopecurus myosuroides), black nightshade (Solanum nigra), chickweed (Stellaria media), common poppy (Papaver rhoeas), deadnettle (Lamium amplexicaule), downy brome (Bromus tectorum), field violet (Viola arvensis), galium (Galium aparine), green foxtail (Setaria viridis), Italian ryegrass (Lolium multiflorum), jointed goatgrass (Aegilops cylindrica), kochia (Kochia scoparia), lambsquarters (Chenopodium album), littleseed canarygrass (Phalaris minor), rape (Brassica napus), redroot pigweed (Amaranthus retroflexus), Russian thistle (Salsola kali), scentless chamomile (Matricaria inodora), spring barley (Hordeum vulgare), sugar beet (Beta vulgaris), sunflower (Helianthus annuus), ivyleaf speedwell (Veronica hederaefolia), spring wheat (Triticum aestivum), winter wheat (Triticum aestivum), wild buckwheat (Polygonum convolvulus), wild mustard (Sinapis arvensis), wild oat (Avena fatua), windgrass (Apera spica-venti) and winter barley (Hordeum vulgare).
Treated plants and untreated controls were maintained in a greenhouse for approximately 21 to 28 days, after which all treated plants were compared to untreated controls and visually evaluated. […] A dash response (-) means no test result.

[1] = Rate 32 g/ha, 0 no injury, 100 complete control
[2] = Rate 64 g/ha, 0 no injury, 100 complete control
[3] = Rate 125 g/ha, 0 no injury, 100 complete control
[4] = Rate 32 g/ha; Preemergence; 0 to 100 scale, 0 no injury, 100 complete control
[5] = Rate 64 g/ha, Preemergence; 0 to 100 scale, 0 no injury, 100 complete control
[6] = Rate 125 g/ha, Preemergence; 0 to 100 scale, 0 no injury, 100 complete control
[7] = Rate 250 g/ha; Preemergence; 0 to 100 scale
[8] = Rate 16 g/ha, 0 no injury, 100 complete control
[9] = Rate 125 g/ha, 0 to 100 scale (0 no effect, 100 complete control)
[10] = Rate 250 g/ha, 0 to 100 scale (0 no effect, 100 complete control)

Compound: Cc1cccc(C)c1-n1c(=O)on(C(=O)N(c2ccc(F)cc2F)C(C)C)c1=O [Compound 28]
- Plant response rating, Tall Mallow (tall mallow; [1]): 0
- Tall Mallow plant response rating (tall mallow; [2]): 0
- Tall Mallow plant response rating (tall mallow; [3]): 0
- Plant response rating, Tall Mallow (tall mallow; Rate 250 g/ha): 0
- Plant response rating, Itchgrass (itchgrass; [1]): 0
- Plant response rating, Itchgrass (itchgrass; [2]): 20
- Plant response rating, Itchgrass (itchgrass; [3]): 40
- Plant response rating, Itchgrass (itchgrass; Rate 250 g/ha): 40
- Plant response rating, Spanishneedles (Spanishneedles; [1]): 0
- Spanishneedles plant response rating (Spanishneedles; [2]): 60
- Spanishneedles plant response rating (Spanishneedles; [3]): 75
- Plant response rating, P. morninglory (pitted morningglory; [1]): 0
- Plant response rating, P. morninglory (pitted morningglory; [2]): 0
- Plant response rating, P. morninglory (pitted morningglory; [3]): 0
- Plant response rating, P. morninglory (pitted morningglory; Rate 250 g/ha): 0
- Plant response rating, Dallisgrass (dallisgrass; [1]): 30
- Plant response rating, Dallisgrass (dallisgrass; [2]): 75
- Plant response rating, Dallisgrass (dallisgrass; [3]): 85
- Plant response rating, Dallisgrass (dallisgrass; Rate 250 g/ha): 100
- Plant response rating Johnsongrass (Johnson grass; [1]): 0
- Plant response rating Johnsongrass (Johnson grass; [2]): 0
- Plant response rating Johnsongrass (Johnson grass; [3]): 0
- Plant response rating Johnsongrass (Johnson grass; Rate 250 g/ha): 0
- Plant response rating, C. ragweed (common ragweed; [1]): 0
- Plant response rating, C. ragweed (common ragweed; [2]): 0
- Plant response rating, C. ragweed (common ragweed; [3]): 0
- Plant response rating, C. ragweed (common ragweed; Rate 250 g/ha): 0
- Plant response rating, C. purslane (common pursiane; [4]): 0
- Plant response rating, C. purslane (common pursiane; [5]): 0
- Plant response rating, C. purslane (common pursiane; [6]): 0
- Plant response rating, C. purslane (common pursiane; [7]): 0

Compound: CCn1c(=O)on(C(=O)N(c2ccc(F)cc2)C(C)C)c1=O [Compound 107]
- Plant response rating, Tall Mallow (tall mallow; [8]): 0
- Plant response rating, Tall Mallow (tall mallow; [1]): 0
- Tall Mallow plant response rating (tall mallow; [2]): 0
- Tall Mallow plant response rating (tall mallow; [3]): 90
- Plant response rating, Tall Mallow (tall mallow; Rate 250 g/ha): 98
- Plant response rating, Tall Mallow (tall mallow; Rate 500 g/ha): 100
- Plant response rating, Downy brome (downy brome; Rate 62 g/ha, 0 to 100 scale, 0 no effect, 100 complete control): 50
- Plant response rating, Downy brome (downy brome; [9]): 60
- Plant response rating, Downy brome (downy brome; Rate 250 g/ha, 0 to 100 scale): 75
- Plant response rating, Itchgrass (itchgrass; [8]): 40
- Plant response rating, Itchgrass (itchgrass; [1]): 75
- Plant response rating, Itchgrass (itchgrass; [2]): 85
- Plant response rating, Itchgrass (itchgrass; [3]): 98
- Plant response rating, Itchgrass (itchgrass; Rate 250 g/ha): 100
- Plant response rating, Itchgrass (itchgrass; Rate 500 g/ha): 100
- Plant response rating, Spanishneedles (Spanishneedles; [8]): 0
- Plant response rating, Spanishneedles (Spanishneedles; [1]): 0
- Spanishneedles plant response rating (Spanishneedles; [2]): 0
- Spanishneedles plant response rating (Spanishneedles; [3]): 20
- Plant response rating, Spanishneedles (Spanishneedles; Rate 500 g/ha): 100
- Plant response rating, P. morninglory (pitted morningglory; [8]): 0
- Plant response rating, P. morninglory (pitted morningglory; [1]): 0
- Plant response rating, P. morninglory (pitted morningglory; [2]): 30
- Plant response rating, P. morninglory (pitted morningglory; [3]): 30
- Plant response rating, P. morninglory (pitted morningglory; Rate 250 g/ha): 75
- Plant response rating, P. morninglory (pitted morningglory; Rate 500 g/ha): 100
- Plant response rating, LS canarygrass (littleseed canarygrass; Rate 62 g/ha, 0 to 100 scale): 15
- Plant response rating, LS canarygrass (littleseed canarygrass; Rate 125 g/ha, 0 to 100 scale): 20
- Plant response rating, LS canarygrass (littleseed canarygrass; [10]): 60
- Plant response rating, Dallisgrass (dallisgrass; [8]): 30
- Plant response rating, Dallisgrass (dallisgrass; [1]): 85
- Plant response rating, Dallisgrass (dallisgrass; [2]): 100
- Plant response rating, Dallisgrass (dallisgrass; [3]): 100
- Plant response rating, Dallisgrass (dallisgrass; Rate 250 g/ha): 100
- Plant response rating, Dallisgrass (dallisgrass; Rate 500 g/ha): 100
- Plant response rating Johnsongrass (Johnson grass; [8]): 20
- Plant response rating Johnsongrass (Johnson grass; [1]): 85
- Plant response rating Johnsongrass (Johnson grass; [2]): 90
- Plant response rating Johnsongrass (Johnson grass; [3]): 90
- Plant response rating Johnsongrass (Johnson grass; Rate 250 g/ha): 98
- Plant response rating Johnsongrass (Johnson grass; Rate 500 g/ha): 100
- Plant response rating, C. ragweed (common ragweed; [8]): 0
- Plant response rating, C. ragweed (common ragweed; [1]): 0
- Plant response rating, C. ragweed (common ragweed; [2]): 0
- Plant response rating, C. ragweed (common ragweed; [3]): 85
- Plant response rating, C. ragweed (common ragweed; Rate 250 g/ha): 100
- Plant response rating, C. ragweed (common ragweed; Rate 500 g/ha): 100
- Plant response rating, C. purslane (common pursiane; Rate 16 g/ha; Preemergence; 0 to 100 scale, 0 no injury, 100 complete control): 0
- Plant response rating, C. purslane (common pursiane; [4]): 0
- Plant response rating, C. purslane (common pursiane; [5]): 0
- Plant response rating, C. purslane (common pursiane; [6]): 0
- Plant response rating, C. purslane (common pursiane; [7]): 0
- Plant response rating, C. purslane (common pursiane; Rate 500 g/ha, Preemergence; 0 to 100 scale): 100
- Plant response rating, C. purslane (common pursiane; Rate 500 g/ha; Preemergence; 0 to 100 scale): 0

Compound: CCn1c(=O)on(C(=O)N(c2ccc(F)cc2F)C(C)C)c1=O [Compound 116]
- Plant response rating, Downy brome (downy brome; [9]): 60
- Plant response rating, Downy brome (downy brome; Rate 250 g/ha, 0 to 100 scale): 50
- Plant response rating, Downy brome (downy brome; Rate 500 g/ha, 0 to 100 scale where 0 is no effect and 100 is complete control): 70
- Plant response rating, LS canarygrass (littleseed canarygrass; Rate 62 g/ha, 0 to 100 scale): 10
- Plant response rating, LS canarygrass (littleseed canarygrass; Rate 125 g/ha, 0 to 100 scale): 30
- Plant response rating, LS canarygrass (littleseed canarygrass; [10]): 40
- Plant response rating, LS canarygrass (littleseed canarygrass; Rate 500 g/ha, 0 to 100 scale, 0 no effect, 100 complete control): 50

Compound: C=C(C)Cn1c(=O)on(C(=O)N(c2ccc(F)cc2)C(C)C)c1=O [Compound 139]
- Tall Mallow plant response rating (tall mallow; [2]): 20
- Plant response rating, Itchgrass (itchgrass; [2]): 20
- Spanishneedles plant response rating (Spanishneedles; [2]): 20
- Plant response rating, P. morninglory (pitted morningglory; [2]): 30
- Plant response rating, Dallisgrass (dallisgrass; [2]): 90
- Plant response rating Johnsongrass (Johnson grass; [2]): 10
- Plant response rating, C. ragweed (common ragweed; [2]): 0
- Plant response rating, C. purslane (common pursiane; [5]): 0
